Assay [1] deals with Vero. The experiment in a line: Vero cell cytotoxicity, cytotoxicity control for flavivirus capping enzyme inhibitors (AID 588742). Format: functional. The following applies: Chlorocebus sabaeus.
A short description of assay [2]: THP-1 cell cytotoxicity, dose response, cytotoxicity control for Vif-APOBEC3G degradation inhibitor project, THP-1 cells (AID 1117359). The format is functional. As to conditions: Human immunodeficiency virus 1, THP-1.
The nature of assay [3]: cells. Format: functional.
Assay [4] deals with Genome polyprotein (Hepatitis C virus, UniProt Q2Q167). The experiment in a line: HCV core protein dimerization inhibitors, dose response, biochemical, TR-FRET (AID 2159).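 Further: blocks dimerization of HCV core protein measured by TR-FRET between tagged core106 pairs.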 More on the design: species or system Hepacivirus hominis. A general note: TR-FRET usually uses a lanthanide donor and a delayed reading to cut background.
Sequence of Genome polyprotein (Hepatitis C virus, UniProt Q2Q167) (Q2Q167 whole entry): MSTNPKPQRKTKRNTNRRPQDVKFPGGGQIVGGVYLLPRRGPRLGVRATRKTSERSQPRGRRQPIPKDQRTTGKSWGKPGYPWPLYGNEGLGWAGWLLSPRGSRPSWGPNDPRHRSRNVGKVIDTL
Assay [5] can be described thus: Luminescence Cell-Based Dose Retest to Confirm Inhibitors of Cancer Stem Cells. [Related pubchem assays (depositor defined):AID2717, AID2721]. As to conditions: Homo sapiens. Format: functional.
The target in assay [6] is Matrix metalloproteinase-14 (Homo sapiens, UniProt P50281). The experiment in a line: Dose Response confirmation of uHTS hits for a small molecule inhibitors of MT1-MMP activation in a fluorescence assay set 2. Format: functional.
Assay [7] in a line: microbe, parasite or virus in culture. Format: functional. The following applies: Mycobacterium tuberculosis.
The nature of assay [8]: THP-1 cell cytotoxicity, dose response, cytotoxicity control for non-replicating M. tuberculosis project (AID 489025). Format: functional.
For assay [9], the target named is T1, Protein Tat (Human immunodeficiency virus type 1 group M subtype B (isolate HXB2)(HIV-1), UniProt P04608).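 Further: tat binding to TAR RNA read out by fluorescence polarization.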
T1 sequence (P04608 whole entry): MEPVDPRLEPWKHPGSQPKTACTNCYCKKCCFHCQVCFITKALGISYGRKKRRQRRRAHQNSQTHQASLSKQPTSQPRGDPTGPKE
Format: functional.

The target of assay [10] is Genome polyprotein (dengue virus type 2, UniProt P29990). The experiment in a line: Dengue-2 NS5 methyltransferase inhibitors, primary screen, biochemical, confirmation dose response (AID 588689). The format is functional.
Sequence of Genome polyprotein (dengue virus type 2, UniProt P29990) (P29990 2492-3391 limits assumed): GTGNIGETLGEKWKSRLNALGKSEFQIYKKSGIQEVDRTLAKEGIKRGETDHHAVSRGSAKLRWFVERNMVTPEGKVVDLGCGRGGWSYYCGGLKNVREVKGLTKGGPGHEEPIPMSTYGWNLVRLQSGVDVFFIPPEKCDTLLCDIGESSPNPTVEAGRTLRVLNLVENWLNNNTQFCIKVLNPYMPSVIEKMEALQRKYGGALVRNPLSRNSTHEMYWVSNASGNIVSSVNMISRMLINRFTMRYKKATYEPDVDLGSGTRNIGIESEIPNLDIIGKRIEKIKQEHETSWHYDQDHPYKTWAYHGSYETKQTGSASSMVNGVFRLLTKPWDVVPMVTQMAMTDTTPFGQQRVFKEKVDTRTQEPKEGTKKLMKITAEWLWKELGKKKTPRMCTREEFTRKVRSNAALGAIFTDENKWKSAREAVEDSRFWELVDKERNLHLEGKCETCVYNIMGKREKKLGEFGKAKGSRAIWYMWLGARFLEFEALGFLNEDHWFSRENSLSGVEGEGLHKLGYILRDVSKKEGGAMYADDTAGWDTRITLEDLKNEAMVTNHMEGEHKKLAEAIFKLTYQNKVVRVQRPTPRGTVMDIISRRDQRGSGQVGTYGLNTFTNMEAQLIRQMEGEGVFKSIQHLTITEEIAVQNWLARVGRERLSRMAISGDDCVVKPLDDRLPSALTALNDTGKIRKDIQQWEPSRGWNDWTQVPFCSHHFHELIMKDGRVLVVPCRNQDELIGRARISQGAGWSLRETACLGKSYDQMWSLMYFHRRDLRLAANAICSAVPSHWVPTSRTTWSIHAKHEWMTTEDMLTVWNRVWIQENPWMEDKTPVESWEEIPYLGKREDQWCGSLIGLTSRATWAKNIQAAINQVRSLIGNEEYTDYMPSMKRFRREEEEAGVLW
Assay [11] deals with DNA (cytosine-5)-methyltransferase 1 (Homo sapiens, UniProt P26358). Briefly: DNMT1 methyltransferase inhibitors, confirmation, biochemical, fluorescent molecular beacon (AID 602386). Format: functional.
Sequence of DNA (cytosine-5)-methyltransferase 1 (P26358 whole entry): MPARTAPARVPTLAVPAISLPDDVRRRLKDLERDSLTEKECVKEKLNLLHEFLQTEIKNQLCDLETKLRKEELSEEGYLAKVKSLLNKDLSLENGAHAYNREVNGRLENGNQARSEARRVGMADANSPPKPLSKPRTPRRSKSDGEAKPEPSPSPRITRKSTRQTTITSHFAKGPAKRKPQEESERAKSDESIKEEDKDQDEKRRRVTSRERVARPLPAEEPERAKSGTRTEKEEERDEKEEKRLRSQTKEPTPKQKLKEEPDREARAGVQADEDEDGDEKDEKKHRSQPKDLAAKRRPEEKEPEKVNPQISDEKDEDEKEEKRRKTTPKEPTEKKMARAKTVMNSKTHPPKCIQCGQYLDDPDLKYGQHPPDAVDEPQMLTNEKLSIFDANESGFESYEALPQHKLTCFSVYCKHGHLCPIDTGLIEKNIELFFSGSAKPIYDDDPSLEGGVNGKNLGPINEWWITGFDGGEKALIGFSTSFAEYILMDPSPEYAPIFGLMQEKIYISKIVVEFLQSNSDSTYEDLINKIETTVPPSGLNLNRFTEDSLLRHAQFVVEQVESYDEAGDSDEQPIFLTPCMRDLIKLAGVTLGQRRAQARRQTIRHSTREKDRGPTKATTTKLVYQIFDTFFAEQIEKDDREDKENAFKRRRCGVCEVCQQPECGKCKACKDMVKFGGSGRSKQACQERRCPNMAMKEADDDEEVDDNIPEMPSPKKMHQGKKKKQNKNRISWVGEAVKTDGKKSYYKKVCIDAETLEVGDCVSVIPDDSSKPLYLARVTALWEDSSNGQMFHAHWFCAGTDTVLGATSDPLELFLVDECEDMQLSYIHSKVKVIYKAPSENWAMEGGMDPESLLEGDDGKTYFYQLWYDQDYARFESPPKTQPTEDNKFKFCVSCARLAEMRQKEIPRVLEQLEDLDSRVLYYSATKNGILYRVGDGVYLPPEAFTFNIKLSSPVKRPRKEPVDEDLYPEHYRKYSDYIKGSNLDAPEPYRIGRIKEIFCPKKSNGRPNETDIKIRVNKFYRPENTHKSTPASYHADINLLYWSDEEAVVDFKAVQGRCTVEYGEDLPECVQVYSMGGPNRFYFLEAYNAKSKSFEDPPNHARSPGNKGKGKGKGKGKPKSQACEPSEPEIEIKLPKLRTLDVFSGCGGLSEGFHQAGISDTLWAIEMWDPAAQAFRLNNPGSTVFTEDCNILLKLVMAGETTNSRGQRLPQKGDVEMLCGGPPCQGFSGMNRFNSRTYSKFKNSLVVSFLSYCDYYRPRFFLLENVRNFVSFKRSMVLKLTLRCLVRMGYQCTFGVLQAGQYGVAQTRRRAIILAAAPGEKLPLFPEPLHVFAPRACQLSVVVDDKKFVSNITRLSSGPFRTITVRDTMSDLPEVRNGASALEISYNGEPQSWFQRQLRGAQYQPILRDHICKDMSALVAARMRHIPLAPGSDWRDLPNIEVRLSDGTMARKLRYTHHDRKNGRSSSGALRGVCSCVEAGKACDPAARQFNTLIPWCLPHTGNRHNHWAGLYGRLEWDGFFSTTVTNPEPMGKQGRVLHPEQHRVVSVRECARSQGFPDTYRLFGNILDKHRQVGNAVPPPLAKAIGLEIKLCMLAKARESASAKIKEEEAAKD
Assay [12] can be described thus: A High Throughput Confirmatory Assay used to Identify Novel Compounds that Inhibit Mycobacterium Tuberculosis in the absence of Glycerol. The format is functional.

Structures are written as SMILES. Active and inactive are the calls of the source. Bounds are passed on as bounds.
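Wherever AC50 is given: cells exposed to compound for roughly 70 hours or longer before luminescence read.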

As to `Cn1cccc1/C=C1/C(=O)NC(=S)N(Cc2ccc(F)cc2)C1=O`, the CC50 is > 40 µM (active) in assay [1], > 40 µM (active) in [2], 23 µM (active) in assay [7] and 14.5 µM (active) in [8]. Also, the concentration for half-maximal inhibition (IC50) (as a rule, the midpoint of a concentration-inhibition curve) in [3] was 33.9 µM (active); in [4] it was > 49.8 µM (not active); in assay [6], 55.3 µM (inactive); in [9], > 100 µM (active); in assay [10] it was > 100 µM (active); in [11], 3.55 µM (active). Moreover, the half-inhibitory concentration (IC50) in assay [12] is > 100 µM (active). Also, in assay [5], the AC50 (commonly the midpoint of the concentration-response curve, whichever way the signal moves) is 1.18 µM (active).

Values taken from ChEMBL document CHEMBL1201862, “PubChem BioAssay data set” (2004).
